# PubChem BioAssay AID2060620 (Molecular Pharmacology Branch, DTP, NCI, 2025)
# Test system: 328373-195-R-J1-PDC complex spheroids, viability % test/control
# Experiment: Anticancer human tumor 328373-195-R-J1-PDC patient-derived head and neck squamous carcinoma cell line growth inhibition [CLK]
# Conditions: for IC50: curve of first compound; for viability, T/C: stronger effect = lower value
# How it was run: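 Multi-cell-type spheroids combined patient-derived tumor cells with HUVEC endothelial cells and human mesenchymal stem cells. Paired agents were dosed in half-log steps down from about clinical Cmax, or from 10 microM where Cmax was unknown.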
# [1] = second compound 0.0316 µM, first compound 0.0316 µM
# [2] = second compound 0.0316 µM, first compound 0.1 µM
# [3] = second compound 0.0316 µM, first compound 0.316 µM
# [4] = second compound 0.0316 µM, first compound 1 µM
# [5] = second compound 0.0316 µM, first compound 3.16 µM
# [6] = second compound 0.0316 µM, first compound 10 µM
# [7] = second compound 0.1 µM, first compound 0.0316 µM
# [8] = second compound 0.1 µM, first compound 0.1 µM
# [9] = second compound 0.1 µM, first compound 0.316 µM
# [10] = second compound 0.1 µM, first compound 1 µM
# [11] = second compound 0.1 µM, first compound 3.16 µM
# [12] = second compound 0.1 µM, first compound 10 µM
# [13] = second compound 0.316 µM, first compound 0.0316 µM
# [14] = second compound 0.316 µM, first compound 0.1 µM
# [15] = second compound 0.316 µM, first compound 0.316 µM
# [16] = second compound 0.316 µM, first compound 1 µM
# [17] = second compound 0.316 µM, first compound 3.16 µM
# [18] = second compound 0.316 µM, first compound 10 µM
# [19] = second compound 1 µM, first compound 0.0316 µM
# [20] = second compound 1 µM, first compound 0.1 µM
# [21] = second compound 1 µM, first compound 0.316 µM
# [22] = second compound 1 µM, first compound 1 µM
# [23] = second compound 1 µM, first compound 3.16 µM
# [24] = second compound 1 µM, first compound 10 µM
# [25] = second compound 3.16 µM, first compound 0.0316 µM
# [26] = second compound 3.16 µM, first compound 0.1 µM
# [27] = second compound 3.16 µM, first compound 0.316 µM
# [28] = second compound 3.16 µM, first compound 1 µM
# [29] = second compound 3.16 µM, first compound 3.16 µM
# [30] = second compound 3.16 µM, first compound 10 µM
# [31] = second compound 10 µM, first compound 0.0316 µM
# [32] = second compound 10 µM, first compound 0.1 µM
# [33] = second compound 10 µM, first compound 0.316 µM
# [34] = second compound 10 µM, first compound 1 µM
# [35] = second compound 10 µM, first compound 3.16 µM
# [36] = second compound 10 µM, first compound 10 µM
# [37] = second compound 0.0316 µM, first compound 0.00316 µM
# [38] = second compound 0.0316 µM, first compound 0.01 µM
# [39] = second compound 0.1 µM, first compound 0.00316 µM
# [40] = second compound 0.1 µM, first compound 0.01 µM
# [41] = second compound 0.316 µM, first compound 0.00316 µM
# [42] = second compound 0.316 µM, first compound 0.01 µM
# [43] = second compound 1 µM, first compound 0.00316 µM
# [44] = second compound 1 µM, first compound 0.01 µM
# [45] = second compound 3.16 µM, first compound 0.00316 µM
# [46] = second compound 3.16 µM, first compound 0.01 µM
# [47] = second compound 10 µM, first compound 0.00316 µM
# [48] = second compound 10 µM, first compound 0.01 µM
# 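Also: spheroids exposed to the agents for 7 days.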
smiles,measurement,setting,value
CC(CO)NC(=O)c1cc(-c2ccc(Cl)cc2)nn(-c2cnn(C)c2)c1=O (stereo not drawn) + CN1CCN(c2cc(C(=O)Nc3cc4cc(-c5cnn(C)c5)ccc4cn3)ccn2)CC1,IC50,second compound 0.0316 µM,> 10 µM
same,IC50,second compound 0.1 µM,> 10 µM
same,IC50,second compound 0.316 µM,< 0.0316 µM
same,IC50,second compound 1 µM,< 0.0316 µM
same,IC50,second compound 3.16 µM,< 0.0316 µM
same,IC50,second compound 10 µM,< 0.0316 µM
same,"viability, T/C",[1],108%
same,"viability, T/C",[2],99.5%
same,"viability, T/C",[3],114%
same,"viability, T/C",[4],106%
same,"viability, T/C",[5],105%
same,"viability, T/C",[6],97.6%
same,"viability, T/C",[7],86.1%
same,"viability, T/C",[8],92.1%
same,"viability, T/C",[9],94.7%
same,"viability, T/C",[10],98%
same,"viability, T/C",[11],92.6%
same,"viability, T/C",[12],82.6%
same,"viability, T/C",[13],32.2%
same,"viability, T/C",[14],39%
same,"viability, T/C",[15],35.2%
same,"viability, T/C",[16],39.5%
same,"viability, T/C",[17],38%
same,"viability, T/C",[18],33.9%
same,"viability, T/C",[19],0.23%
same,"viability, T/C",[20],0.27%
same,"viability, T/C",[21],1.91%
same,"viability, T/C",[22],1.81%
same,"viability, T/C",[23],1.3%
same,"viability, T/C",[24],2.16%
same,"viability, T/C",[25],2.73%
same,"viability, T/C",[26],1.98%
same,"viability, T/C",[27],1.71%
same,"viability, T/C",[28],0.57%
same,"viability, T/C",[29],3.9%
same,"viability, T/C",[30],2.11%
same,"viability, T/C",[31],0.74%
same,"viability, T/C",[32],0.62%
same,"viability, T/C",[33],0.43%
same,"viability, T/C",[34],1%
same,"viability, T/C",[35],0.24%
same,"viability, T/C",[36],3.1%
CC(Nc1ccc2c(c1)OCCn1cc(N3C(=O)OCC3C(F)F)nc1-2)C(N)=O (stereo not drawn) + CN1CCN(c2cc(C(=O)Nc3cc4cc(-c5cnn(C)c5)ccc4cn3)ccn2)CC1,IC50,second compound 0.0316 µM,> 10 µM
same,IC50,second compound 0.1 µM,2.42 µM
same,IC50,second compound 0.316 µM,< 0.0316 µM
same,IC50,second compound 1 µM,< 0.0316 µM
same,IC50,second compound 3.16 µM,< 0.0316 µM
same,IC50,second compound 10 µM,< 0.0316 µM
same,"viability, T/C",[1],90.4%
same,"viability, T/C",[2],88.7%
same,"viability, T/C",[3],87.1%
same,"viability, T/C",[4],78.4%
same,"viability, T/C",[5],58.1%
same,"viability, T/C",[6],53.7%
same,"viability, T/C",[7],75.8%
same,"viability, T/C",[8],74.3%
same,"viability, T/C",[9],73.7%
same,"viability, T/C",[10],67.2%
same,"viability, T/C",[11],44.2%
same,"viability, T/C",[12],45.4%
same,"viability, T/C",[13],34.3%
same,"viability, T/C",[14],28.9%
same,"viability, T/C",[15],28.8%
same,"viability, T/C",[16],23.8%
same,"viability, T/C",[17],17.7%
same,"viability, T/C",[18],17.5%
same,"viability, T/C",[19],0.25%
same,"viability, T/C",[20],0.23%
same,"viability, T/C",[21],1.16%
same,"viability, T/C",[22],0.41%
same,"viability, T/C",[23],1.23%
same,"viability, T/C",[24],1.08%
same,"viability, T/C",[25],1.31%
same,"viability, T/C",[26],0.16%
same,"viability, T/C",[27],1.05%
same,"viability, T/C",[28],0.11%
same,"viability, T/C",[29],2.46%
same,"viability, T/C",[30],2.43%
same,"viability, T/C",[31],0.1%
same,"viability, T/C",[32],1.44%
same,"viability, T/C",[33],0.26%
same,"viability, T/C",[34],0.2%
same,"viability, T/C",[35],2.32%
same,"viability, T/C",[36],1.83%
CCN1CCN(Cc2ccc(Nc3ncc(F)c(-c4cc(F)c5nc(C)n(C(C)C)c5c4)n3)nc2)CC1 + CN1CCN(c2cc(C(=O)Nc3cc4cc(-c5cnn(C)c5)ccc4cn3)ccn2)CC1,IC50,second compound 0.0316 µM,> 1 µM
same,IC50,second compound 0.1 µM,> 1 µM
same,IC50,second compound 0.316 µM,< 0.00316 µM
same,IC50,second compound 1 µM,< 0.00316 µM
same,IC50,second compound 3.16 µM,< 0.00316 µM
same,IC50,second compound 10 µM,< 0.00316 µM
same,"viability, T/C",[37],94.7%
same,"viability, T/C",[38],95.9%
same,"viability, T/C",[1],103%
same,"viability, T/C",[2],79.5%
same,"viability, T/C",[3],71.3%
same,"viability, T/C",[4],51.2%
same,"viability, T/C",[39],86.5%
same,"viability, T/C",[40],84.8%
same,"viability, T/C",[7],88.5%
same,"viability, T/C",[8],69.3%
same,"viability, T/C",[9],63%
same,"viability, T/C",[10],53.3%
same,"viability, T/C",[41],29.9%
same,"viability, T/C",[42],32.9%
same,"viability, T/C",[13],31.6%
same,"viability, T/C",[14],26.5%
same,"viability, T/C",[15],24.2%
same,"viability, T/C",[16],18.5%
same,"viability, T/C",[43],0.16%
same,"viability, T/C",[44],2.17%
same,"viability, T/C",[19],0.34%
same,"viability, T/C",[20],1.1%
same,"viability, T/C",[21],0.85%
same,"viability, T/C",[22],0.24%
same,"viability, T/C",[45],0.11%
same,"viability, T/C",[46],1.57%
same,"viability, T/C",[25],1.92%
same,"viability, T/C",[26],0.15%
same,"viability, T/C",[27],1.14%
same,"viability, T/C",[28],0.2%
same,"viability, T/C",[47],0.37%
same,"viability, T/C",[48],0.56%
same,"viability, T/C",[31],3.2%
same,"viability, T/C",[32],0.17%
same,"viability, T/C",[33],1.94%
same,"viability, T/C",[34],1.71%
COc1c(OCCCN2CCOCC2)ccc2c3n(c(=NC(=O)c4cnc(N)nc4)nc12)CCN3 + CN1CCN(c2cc(C(=O)Nc3cc4cc(-c5cnn(C)c5)ccc4cn3)ccn2)CC1,IC50,second compound 0.0316 µM,0.126 µM
same,IC50,second compound 0.1 µM,0.0799 µM
same,IC50,second compound 0.316 µM,< 0.00316 µM
same,IC50,second compound 1 µM,< 0.00316 µM
same,IC50,second compound 3.16 µM,< 0.00316 µM
same,IC50,second compound 10 µM,< 0.00316 µM
same,"viability, T/C",[37],95.8%
same,"viability, T/C",[38],93.9%
same,"viability, T/C",[1],77.9%
same,"viability, T/C",[2],52.7%
same,"viability, T/C",[3],31.9%
same,"viability, T/C",[4],9.52%
same,"viability, T/C",[39],71.7%
same,"viability, T/C",[40],77.8%
same,"viability, T/C",[7],63.5%
same,"viability, T/C",[8],46.4%
same,"viability, T/C",[9],23.2%
same,"viability, T/C",[10],10.4%
same,"viability, T/C",[41],32.5%
same,"viability, T/C",[42],35.3%
same,"viability, T/C",[13],20.4%
same,"viability, T/C",[14],17.1%
same,"viability, T/C",[15],7.35%
same,"viability, T/C",[16],4.17%
same,"viability, T/C",[43],0.2%
same,"viability, T/C",[44],1.02%
same,"viability, T/C",[19],0.29%
same,"viability, T/C",[20],0.33%
same,"viability, T/C",[21],0.18%
same,"viability, T/C",[22],4.25%
same,"viability, T/C",[45],0.08%
same,"viability, T/C",[46],3.15%
same,"viability, T/C",[25],0.9%
same,"viability, T/C",[26],0.09%
same,"viability, T/C",[27],2.94%
same,"viability, T/C",[28],0.12%
same,"viability, T/C",[47],0.62%
same,"viability, T/C",[48],2.77%
same,"viability, T/C",[31],0.15%
same,"viability, T/C",[32],0.14%
same,"viability, T/C",[33],1.52%
same,"viability, T/C",[34],1.72%
